Laboratory results as given in publication PMC12535076, “Neurotherapeutic effects of Vutiglabridin as a Paraoxonase-2 modulator in preclinical models of Parkinson’s disease” (Molecular Neurodegeneration, 2025).
Values joined by “and” are separate entries in the source; they are usually repeats but may differ in a detail not shown here. Equal entries are not always repeated.

Experiments:
Sprague-Dawley rats = test: Functional observational battery (FOB) evaluation; assay type: in vivo, rat; conditions: male SD rats, single oral 500, 1000, 2000 mg/kg; 0.5, 1, 3, 6, 24 h
Experimental: To further investigate the potential neurotoxicity of Vuti in vivo, a standard functional observational battery (FOB) evaluation was performed. Male Sprague-Dawley rats were administered single high doses of Vuti – 500, 1000, and 2000 mg/kg. Subsequently, two observers blindly scored the behavior of animals in the home cage, open field, hand-held, and sensory-motor function at time points of 0.5, 1, 3, 6, and 24 h.
Male 6-week-old Sprague-Dawley Rat was orally administered with 0, 500, 1000, or 2000 mg/kg of Vuti (n = 8 per group). Two observers performed blind observations following the standard guideline (3) at 0.5, 1-, 3-, 6-, and 24-hours post-dose on the basis of the pharmacokinetics parameters. […] NC = No change, NSC = No statistically significant change.

[1] = biological target: T1, recombinant human PON2 (rePON2) (Homo sapiens, UniProt Q15165); test: Mass spectrometry-based binding assay; conditions: 10 nM Vuti incubated with rePON2 0-500 nM for 30 min, LC-MS/MS; read-out: dissociation constant (Kd)
T1 construct: made in house; host or cells: E. coli BL21 (DE3), pET21b
Text: The codon-optimization of HsPON2 was for Escherichia coli system and synthesized according to the full-length open reading frame (GenBank accession No. AAC41995.1) from National Center for Biotechnology Information (NCBI; http://www.ncbi.nlm.nih.gov). The HsPON2 gene was amplified by a standard PCR method with a primer set (Forward; 5’-[…]-3’, Reverse; 5’-[…]-3’) and inserted into an expression vector (pET21b; New England Biolabs, USA) using NdeI and XhoI restriction enzyme sites (underlined). […] The recombinant construct was transformed into E. coli BL21 (DE3) competent cells. The transformed cells were activated overnight and transferred to 1 L of LB broth (BD bioscience, USA) with 100 µg/mL ampicillin (Duchefa Biochemie, The Netherlands) containing 0.1% glucose, and then incubated at 37 ℃ and 200 rpm in incubator (Vision Scientific, Korea) until reaching the optical density of 0.6–0.8 at 600 nm (OD600). […] The eluted HsPON2 protein was analyzed by a 12% SDS-PAGE and concentrated up to approximately 1 mL by 10 kDa filter-size amicon (Merck Millipore, USA). […]
The method followed the concept of previously established protocol. […] The supernatant, which now contains rePON2-bound Vuti, was collected, dried, and re-suspended in acetonitrile, and the drug quantification was performed via LC-MS/MS analysis.

[2] = biological target: T2, P-glycoprotein (P-gp, MDR1) (Homo sapiens, UniProt P08183); test: P-glycoprotein (P-gp) efflux assay in cell monolayers; assay type: in vitro ADME; conditions: MDCKII, MDCKII-hMDR1 and Caco-2 monolayers, with and without P-gp inhibitor GF120918
T2 construct: expressed in transfected cells; host or cells: MDCKII-hMDR1 (canine kidney cells carrying human MDR1); also parental MDCKII and Caco-2 (endogenous human P-gp)
Experimental: P-gp efflux ratio was determined in MDCKII-hMDR1, MDCKII [61], and Caco-2 cell monolayer via LC-MS/MS analysis, in accordance with the standard FDA guideline on transporter-mediated drug interactions. 10 µM of GF120918 was used as P-gp inhibitor. The apical (A-to-B) and basolateral (B-to-A) permeability coefficient (Papp) were measured to yield the efflux ratio.
(a) Measurement of Vuti concentration in octanol and aqueous phase (pH7.4 phosphate buffer) via HPLC. The mean value of three replicates was used, and the limit of quantification (LOQ) value was used to calculate Log D as a log of concentration in the octanol phase divided by the concentration in the aqueous phase. (b) Efflux ratios (Papp(B→A)/Papp(A→B)) of Vuti in three types of cell monolayers, with or without P-glycoprotein (P-gp) inhibitor GF120918. (c) Schematic of 14C-labeling of Vuti. Attachment to the ethoxy group is warranted because it is robustly maintained throughout metabolism. (d) Plasma radioactivity concentration in Sprague-Dawley rats after a single administration of 10 mg/kg of 14C-Vuti (n = 3).

T1 sequence (Q15165 1-354 isoform Q15165-1): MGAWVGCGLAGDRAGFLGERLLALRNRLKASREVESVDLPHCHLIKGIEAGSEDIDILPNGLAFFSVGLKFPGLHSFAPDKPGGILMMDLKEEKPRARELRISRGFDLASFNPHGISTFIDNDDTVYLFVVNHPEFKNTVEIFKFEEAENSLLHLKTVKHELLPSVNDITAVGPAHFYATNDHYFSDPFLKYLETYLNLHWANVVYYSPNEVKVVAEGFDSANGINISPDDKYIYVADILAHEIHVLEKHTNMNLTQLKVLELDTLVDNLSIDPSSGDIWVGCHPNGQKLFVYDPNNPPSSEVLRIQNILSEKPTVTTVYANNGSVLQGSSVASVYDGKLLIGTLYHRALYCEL
T2 sequence (P08183 whole entry): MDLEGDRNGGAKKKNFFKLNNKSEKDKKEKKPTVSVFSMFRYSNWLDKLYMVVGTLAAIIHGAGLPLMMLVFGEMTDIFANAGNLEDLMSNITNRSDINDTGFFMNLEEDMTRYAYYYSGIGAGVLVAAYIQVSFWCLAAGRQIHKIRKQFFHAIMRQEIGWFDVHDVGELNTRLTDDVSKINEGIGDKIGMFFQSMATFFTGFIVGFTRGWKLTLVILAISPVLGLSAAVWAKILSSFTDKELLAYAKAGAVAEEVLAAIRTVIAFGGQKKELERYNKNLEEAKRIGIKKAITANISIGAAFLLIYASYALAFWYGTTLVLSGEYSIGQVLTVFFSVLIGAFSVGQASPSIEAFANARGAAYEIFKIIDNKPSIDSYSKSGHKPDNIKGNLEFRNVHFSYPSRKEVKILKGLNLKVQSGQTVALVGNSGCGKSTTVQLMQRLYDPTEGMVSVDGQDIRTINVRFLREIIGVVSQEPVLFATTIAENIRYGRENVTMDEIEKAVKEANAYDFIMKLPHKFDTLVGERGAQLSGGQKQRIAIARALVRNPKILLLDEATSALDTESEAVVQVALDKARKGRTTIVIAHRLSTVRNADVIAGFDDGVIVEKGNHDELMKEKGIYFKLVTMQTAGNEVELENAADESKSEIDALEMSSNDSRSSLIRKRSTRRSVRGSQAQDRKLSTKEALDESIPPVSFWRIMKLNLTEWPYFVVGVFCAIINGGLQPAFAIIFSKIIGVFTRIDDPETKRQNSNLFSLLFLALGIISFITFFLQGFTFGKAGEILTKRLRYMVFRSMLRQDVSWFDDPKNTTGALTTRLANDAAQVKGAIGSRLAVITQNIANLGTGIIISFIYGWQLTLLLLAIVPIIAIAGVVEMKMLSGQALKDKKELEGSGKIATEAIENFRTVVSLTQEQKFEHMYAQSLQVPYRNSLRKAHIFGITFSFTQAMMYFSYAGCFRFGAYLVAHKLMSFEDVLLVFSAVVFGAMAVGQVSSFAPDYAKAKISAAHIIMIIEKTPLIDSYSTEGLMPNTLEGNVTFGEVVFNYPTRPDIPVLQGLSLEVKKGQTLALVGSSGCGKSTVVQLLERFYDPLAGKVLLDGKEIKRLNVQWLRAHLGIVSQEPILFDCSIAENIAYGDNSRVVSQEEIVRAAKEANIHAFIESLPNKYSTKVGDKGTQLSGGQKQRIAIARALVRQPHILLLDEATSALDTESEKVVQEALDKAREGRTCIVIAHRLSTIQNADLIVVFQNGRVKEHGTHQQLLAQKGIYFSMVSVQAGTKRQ

CCOc1ccc(C2COc3c(ccc4c3CCC(C)(C)O4)C2)c(O)c1 (stereo not drawn) [Vuti, Vutiglabridin]
behaviors in FOB (home cage, open field, hand-held, sensory-motor function) (Sprague-Dawley rats): did not induce statistically significant changes | Kd [1]: 78.9 nM and 78 nM | efflux ratio (Papp(B→A)/Papp(A→B)) [2]: low efflux ratio
